Broadly, the EC50 is the concentration at which the effect is half-maximal.

Active and inactive are the calls of the source.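 Rule for the calls: active = compounds whose mean EC50, the dose giving half the maximal reporter activation, is at or below a set limit; inactive = the rest.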

The target in the assay is CHO-CHOP luciferase reporter, UPR activation, luminescence. Kind of assay: activators of PERK-eIF2a-CHOP UPR arm, confirmation, CHO-CHOP cells, luciferase luminescence (AID 489024).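 Note: compounds added alone to reporter cells with no tunicamycin stress co-treatment.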
Consider `COc1ccc(/C=C/C(=O)c2ccc(C(=O)/C=C/c3ccc(OC)c(OC)c3)cc2)cc1OC`, for which the EC50 is > 80 µM (inactive).
Next, `O=C(CCl)c1ccc(Cc2ncc(C(F)(F)F)cc2Cl)s1`: 9.69 µM.
Next, `COc1cccc(-n2c(SCC(=O)N3CCc4ccccc43)nnc2-c2c[nH]c3ccccc23)c1`: > 80 µM (inactive); `CC1CCC/C=C/C(=O)c2c(O)cc(O)cc2CC(=O)O1` (stereo unspecified): > 80 µM (inactive).
Next, `CCOC(=O)c1c(C)oc2c1c(C(c1cccnc1)N1CCOCC1)c(O)c1ccccc12` (stereo unspecified): 16.8 µM.
For the molecule `Cc1cccc(-n2c(/C=C/c3ccc([N+](=O)[O-])o3)nc3ccccc3c2=O)c1`, the EC50 was 11.7 µM.
Next, `Clc1ccc(-c2ccc(/C=N/Nc3nncc(-c4ccccc4)n3)o2)cc1`: 15.6 µM; `Clc1ccc(-n2nnnc2Sc2ncnc3sccc23)cc1`: > 80 µM (inactive).
In the case of `Cc1nc([N+](=O)[O-])c(Br)n1CC(=O)c1ccc(Cl)cc1` it was > 80 µM (inactive).
In the case of `COc1cc(C(=O)Sc2ccc(Cl)cc2)cc(OC)c1OC` it was 15 µM; in that of `C/C(=N\NC(=O)c1ccc(F)cc1)c1ccccn1`, 8.27 µM; in that of `O=CC1=C(c2ccccc2)Oc2ccccc2O1`, 12.2 µM.
As for `CC1=C(CC/C(C)=N/NC(N)=S)C(C)(C)CCC1`, the concentration giving a half-maximal response (EC50) is 19.8 µM.
Next, `COC(=O)C1=C(C)N(c2ccc(C)c(C)c2)/C(=C/c2ccco2)C1=O`: 8.53 µM; `O=C(/C(=C\c1ccccc1)c1nc2ccccc2[nH]1)c1ccc(Cl)cc1`: 8.43 µM; `Cc1ccc(NC(=O)c2ccc([N+](=O)[O-])o2)cc1S(=O)(=O)N1CCOCC1`: 11.8 µM.
`Cc1nn(Cc2c(Cl)cccc2Cl)c(C)c1NC(=O)c1sc2ccccc2c1Cl`: the EC50 result is “inactive”.
Take `CCc1nn(-c2cc(Oc3cccc4ccccc34)nc(-c3ccccc3)n2)c(N)c1C#N`: the EC50 result was “inactive”.
Next, `Cn1nc(C(F)(F)F)c(/C=N/OC(=O)c2ccccc2)c1SCc1ccccc1Cl`: “inactive”.
Next, `COc1ccc(N2C(=O)/C(=C/c3cccs3)C(=O)NC2=S)cc1`: 9.09 µM.
`CCOC(=O)/C(=C\c1ccc(Cl)cc1)c1nc2sc(C)c(C)c2c(=O)[nH]1`: the EC50 was > 80 µM (inactive).
For `Cc1ccc(-c2nc(NC(=O)c3nn(C)cc3[N+](=O)[O-])sc2C)cc1`, the EC50 is 8.48 µM.
For the molecule `Cc1ccc(-c2nn(-c3ccccc3)cc2C=C2C(=O)CC(C)(C)CC2=O)cc1`, the concentration giving a half-maximal response (EC50) is 13.2 µM.
For `CC1=CC(=O)C(C(C)C)=C/C1=N/OC(=O)c1cccc([N+](=O)[O-])c1`, the EC50 was > 80 µM (inactive).
For the molecule `O=C(/C=C\c1ccccc1OC(=O)c1ccccc1F)c1cc2ccccc2o1`, the concentration giving a half-maximal response (EC50) was 14 µM.
In the case of `S=C(Nc1ccccc1)c1ccccn1` it was 9.11 µM; in that of `Cc1cccc2sc(NC(=O)c3cc(S(=O)(=O)N(C)C)ccc3N3CCCC3)nc12`, “inactive”.
Next, `Cc1[nH]c2ccccc2c1CN1CCC(Cc2ccccc2)CC1`: 11.1 µM.
In the case of `CCOc1cc(NC(=O)CCl)c(OCC)cc1NC(=O)CCl` it was “inactive”; in that of `CCOC(=O)c1c(CSC(=N)N)n(-c2ccc(C)cc2)c2cc(Br)c(OC(C)=O)cc12`, > 80 µM (inactive); in that of `Oc1ccc(CN2CCN(Cc3ccccc3)CC2)c2cccnc12`, “inactive”.
For `N#CC1=C(N)OC2=C(CC/C2=C\c2ccccc2)C1c1ccccc1` (stereo unspecified), the EC50 was 6.51 µM.
In the case of `CCc1cc2c(=O)c(-c3cnn(-c4ccccc4)c3)c(C)oc2cc1OCC(=O)Nc1cccc(C)c1` it was 15.1 µM; in that of `O=C(CCN1C(=O)/C(=C\c2ccccc2F)SC1=S)N1CCCCC1`, > 80 µM (inactive).
As to `N#Cc1ccc(N/N=C/c2cn(-c3ccccc3)nc2-c2ccccc2)c([N+](=O)[O-])c1`, the EC50 was > 80 µM (inactive).
In the case of `CS(=O)(=O)Oc1ccc2c(c1)O/C(=C\C=C\c1ccccc1)C2=O` it was “inactive”.
In the case of `COC(=O)Oc1ccc(/C=C/C(=O)OC(C)C)cc1OC(=O)OC` it was 14 µM; in that of `COc1nc(N)nc(NC(=O)c2cccs2)c1N=O`, 17.9 µM; in that of `O=C(Nc1cccc(S(=O)(=O)N2CCCCC2)c1)c1ccc([N+](=O)[O-])o1`, 5.08 µM.
In the case of `CCOC(=O)c1ccc(N2C(=O)C=CC2=O)cc1`, the EC50 was > 80 µM (inactive).
In the case of `O=C(CSc1nc2ccc(Nc3nc(N4CCOCC4)nc(N4CCOCC4)n3)cc2s1)Nc1ccccc1F`, the concentration for a half-maximal effect (EC50) is 14.7 µM.
For the molecule `Cc1ccc(C[n+]2c(-c3ccc(C)cc3)cc(-c3ccc(C)cc3)cc2-c2ccc(C)cc2)cc1`, the EC50 is 4.67 µM.
Next, `O=C(Nc1nc(-c2ccc3ccccc3c2)cs1)c1ccc(N2C(=O)CCC2=O)cc1`: > 80 µM (inactive).
Regarding `CSc1nnc(NC(=O)c2nc(S(=O)(=O)Cc3ccccc3)ncc2Cl)s1`, the EC50 is > 80 µM (inactive).
In the case of `CCc1ccc2nc(N(CCCN(C)C)C(=O)c3ccc(S(=O)(=O)N4CCc5ccccc5C4)cc3)sc2c1` it was 7.12 µM; in that of `Cc1cc(C(=O)c2ccc(C(C)(C)C)cc2)c(NC(=O)CCl)s1`, 12.4 µM.
In the case of `Cc1ccc2cccc(NS(=O)(=O)c3ccccc3)c2n1` it was 3.53 µM.
Next, `O=C1NC(=O)N(c2ccccc2)C(=O)/C1=C\C=C\c1ccccc1`: 4.5 µM; `Cc1cccc(CS(=O)(=O)c2ncc(Cl)c(C(=O)Nc3ccc(F)cc3)n2)c1`: 9.1 µM; `O=C(C=C=Nc1ccccc1)C(=O)N=C=Cc1ccccc1`: 5.75 µM.
Take `COc1ccc(N=c2oc3ccc(OC)cc3cc2-c2nc3ccccc3[nH]2)cc1`: the EC50 is 11.7 µM.
Next, `Oc1ccc(/C=N/Nc2ncnc3c2ncn3Cc2ccccc2)cc1O`: 13.1 µM.
In the case of `CCOC(=O)C(=Cc1ccc(F)cc1)C(=O)OCC` it was > 80 µM (inactive).
Next, `COc1cc(/C=C2\COC/C(=C\c3ccc(O)c(OC)c3)C2=O)ccc1O`: 6.34 µM; `COc1ccc2[nH]cc(C(=O)CCl)c2c1`: > 80 µM (inactive).
Regarding `O=C(/C=C1\NC2(CCCC2)Cc2ccccc21)C(=O)N/N=C/c1ccc(O)c(O)c1`, the concentration for a half-maximal effect (EC50) is 9.4 µM.
Consider `Cc1nc(NC(=O)/C=C/c2ccccc2)n[nH]1`, for which the EC50 was > 80 µM (inactive).
In the case of `CCOC(=O)N1CCN(Cc2ccc(O)c3ncccc23)CC1` it was 16.4 µM; in that of `O=C(C#Cc1ccccc1)c1cccc([N+](=O)[O-])c1`, 7.41 µM; in that of `Cc1ccc(C)c(NC(=O)/C(C#N)=C/c2cn(CC(=O)NCc3ccco3)c3ccccc23)c1`, > 80 µM (inactive).
Next, `O=[N+]([O-])c1ccc2nc(Cl)nc(-c3ccccc3)c2c1`: 12.5 µM.
Next, `O=C(Nc1nc(-c2ccc(F)c(F)c2)cs1)Nc1ccc(F)cc1F`: > 80 µM (inactive); `COc1ccc(/C=C/c2ccc3cccc(O)c3n2)c(OC)c1OC`: 8.23 µM.
For `O=C(Nc1ccc(C(F)(F)F)cc1)c1cc(-c2cccnc2)nc2ccc(Br)cc12`, the EC50 was 8.66 µM.
In the case of `Cc1ccc(CN2CCN(/N=C/c3ccc(O)c(O)c3)CC2)cc1` it was 3.64 µM; in that of `O=C(Nc1nccs1)c1cccc(N2C(=O)c3cccc4c([N+](=O)[O-])ccc(c34)C2=O)c1`, 11.5 µM.

Source of the values: PubChem BioAssay AID489024 (Sanford-Burnham Center for Chemical Genomics, 2010).
